{"source": "patent US8455397B2", "about": "“Penoxsulam as a turfgrass, vineyard and orchard floor herbicide” (Dow AgroSciences, LLC, priority 2005, dated 2013)", "system": "dandelion (TAROF)", "experiment": "Postemergent granule herbicides, turfgrass field studies", "assay_type": "in vivo, Taraxacum officinale", "procedure": "Field studies were conducted in established turfgrass sites containing a natural population of target broadleaf weeds. Replicated trials, containing a minimum of three replications and having individual plots ranging in size from 25 to 50 ft. sq (2.3 to 4.6 square meters), were initiated in the late spring when turf and weeds were actively growing. Granule treatments were uniformly applied to individual plots using a common hand-shaker method. Applications were made in the early morning when dew was present. Natural rainfall and supplemental irrigation were used to maintain healthy turf and active weed growth throughout the study period. Control of each weed species in the study site was made at 2, 4 and 8 weeks after treatment. Control was determined visually by comparing treated and untreated weeds and scored on a 0 to 100 percent scale where 0 corresponds to no control and 100 corresponds to complete kill."}
{"compound": "COc1cnc(OC)n2nc(NS(=O)(=O)c3c(OCC(F)F)cccc3C(F)(F)F)nc12", "note": "[Penoxsulam, 2-(2,2-difluoroethoxy)-N-(5,8-dimethoxy[1,2,4]triazolo[1,5-c]-pyrimidin-2-yl)-6-(trifluoromethyl)benzenesulfonamide]", "values": [{"measurement": "Mean Percent Weed Control", "setting": "Table I, 4 Weeks After Treatment, 5 sites, Penoxsulam 140 gai/Ha, Scotts Plus 2 1682+841 gae/Ha, Trimec 1121+516+112 gae/Ha", "result": 93, "unit": "%"}, {"measurement": "Mean Percent Weed Control", "setting": "Table I, 8 Weeks After Treatment, 5 sites, Penoxsulam 140 gai/Ha, Scotts Plus 2 1682+841 gae/Ha, Trimec 1121+516+112 gae/Ha", "result": 87, "unit": "%"}, {"measurement": "Mean Percent Weed Control", "setting": "Table III, 4 Weeks After Treatment, 22.4 gai/Ha, 6 sites", "result": 45, "unit": "%"}, {"measurement": "Mean Percent Weed Control", "setting": "Table III, 4 Weeks After Treatment, 44.9 gai/Ha, 6 sites", "result": 61, "unit": "%"}, {"measurement": "Mean Percent Weed Control", "setting": "Table III, 4 Weeks After Treatment, 67.3 gai/Ha, 6 sites", "result": 61, "unit": "%"}, {"measurement": "Mean Percent Weed Control", "setting": "Table III, 4 Weeks After Treatment, 100 gai/Ha, 6 sites", "result": 69, "unit": "%"}, {"measurement": "Mean Percent Weed Control", "setting": "Table III, 8 Weeks After Treatment, 22.4 gai/Ha, 6 sites", "result": 25, "unit": "%"}, {"measurement": "Mean Percent Weed Control", "setting": "Table III, 8 Weeks After Treatment, 44.9 gai/Ha, 6 sites", "result": 45, "unit": "%"}, {"measurement": "Mean Percent Weed Control", "setting": "Table III, 8 Weeks After Treatment, 67.3 gai/Ha, 6 sites", "result": 47, "unit": "%"}, {"measurement": "Mean Percent Weed Control", "setting": "Table III, 8 Weeks After Treatment, 100 gai/Ha, 6 sites", "result": 57, "unit": "%"}]}
